Results reported in patent publication US12691107B2, “Methods for the treatment and prevention of lung infections caused by gram-positive bacteria, fungus, or virus by administration of tafenoquine” (priority 2020, dated 2026).
Values after ≈ are worked out from the molar mass of the structure shown. Where two headings read alike, the source gives them in different places.

How the values were obtained:
Candida parapsilosis = test: Antifungal MIC (RPMI-1640 microdilution); type: cell-based; conditions: for MIC50 / MIC: Lodderomyces parapsilosis
Candida auris = test: Antifungal MIC (RPMI-1640 microdilution); type: cell-based
Cryptococcus neoformans = test: Antifungal MIC (RPMI-1640 microdilution); type: cell-based
Aspergillus fumigatus = test: Antifungal MIC (RPMI-1640 microdilution); type: cell-based
SARS-CoV-2 = test: microbe, parasite or virus in culture; type: cell-based; conditions: Severe acute respiratory syndrome coronavirus 2, Vero C1008; Vero E6, moi 0.05, 48 hours, TCID50
HCMV strain AD169 = test: CPE assay for HCMV in HFF cells; type: cell-based; conditions: Human betaherpesvirus 5, AD169
[1] = tested on: RSV, MERS coronavirus and influenza A H1N1; type: cell-based
[2] = Tissue distribution of [14C]radio-labeled tafenoquine in male rats; type: in vivo, rat; conditions: for concentration of tafenoquine in lung: 25 mg base/kg single oral dose
Description: FIG. 3: Concentration of tafenoquine in microgram equivalents per g of tissue in various tissues of male rats 12 h following administration of [14C]radio-labeled tafenoquine (25 mg base/kg). Radioactivity was measured in the combusted organs of euthanized rats by liquid scintillation analysis.
In this study, a single oral dose of [14C]radio-labeled tafenoquine (25 mg base/kg) was given to 60 male rats, and then groups of 5 animals were killed at time points ranging from 30 minutes to 120 hours post-dose. Radioactivity in the combusted organs of killed animals was measured by liquid scintillation analysis. When expressed as microgram equivalents tafenoquine per gram of tissue, the concentration of tafenoquine in lung were at 0.5, 1, 6, 12, 24, 48, 72, 96, and 120 hours post-administration were 1.21, 6.43, 133, 154, 136, 119, 83.7, 59.4, and 44.4, respectively.

[3] = Maximum tolerated dose in uninfected immunosuppressed mice; type: in vivo, ICR mice
Description: Tafenoquine succinate powder was supplied in the form of the commercial API used to make 100 mg ARAKODA tablets [therefore it was >99.8% pure and contain no excipients]. Four dosing solutions were prepared, and the concentrations of tafenoquine succinate were adjusted based on the mean mouse weight at the start of the study in order to achieve dosing groups of 2.5, 5, 10 and 20 mg/kg tafenoquine base respectively [note that tafenoquine succinate contains 79.6% tafenoquine base].
The dosing solutions was in the form of a tafenoquine succinate suspension in the drug vehicle. A large batch [>1 liter] of the drug vehicle [0.2% v/v Tween 80 in 1% v/v methyl cellulose in sterile water] was prepared at least 96 h before the first dose was administered and kept refrigerated [4° C.]. During preparation, the batch of drug vehicle was stirred for sufficiently long to ensure a uniform composition [4 to 24 h of stirring with a magnetic stir bar may be required].
Dosing solutions were prepared no more than 72 h prior to the first dose. Tafenoquine powder was weighed out separately for each dosing solution. After weighing, tafenoquine was transferred into an appropriately sized, transparent tube [or equivalent] containing the desired volume of drug vehicle, and gently shaken to allow development of a uniform suspension without bubble formation. The tubes containing dosing solutions were stored at [4° C.] wrapped in aluminum foil until use. Prior to use, the dosing solutions were inverted gently as required to resuspend the tafenoquine and allowed to warm temperature. Use of transparent tubes allowed for visual confirmation that an even resuspension of the drug has had been achieved prior to dosing. The above resuspension procedure was conducted the first time 48 h prior to the first day of dosing to confirm there have been no preparation issues.
Mouse Strain—Outbred male ICR mice weighing ~28 grams were used. Mice were housed 5 per cage and had access to food and water ad libitum.
Immune Status—Standard neutropenic immunosuppression regimen in the PK/dose tolerability study was used, which was also used in the in vivo efficacy model. This regimen utilizes cyclophosphamide and cortisone acetate to render animals immunosuppressed prior to aerosolized inoculation. • Cyclophosphamide (25 mg/mL) was dissolved by the addition of sterile water to the vial. This was administered as a dose of 250 mg/kg two days prior to inoculation. […]
Mouse Assessment—Throughout the studies, mice were observed multiple times per day and their overall health determined. […]

Babesia = conditions: mice; cited from earlier work
[4] = in vivo, cited from earlier work
[5] = read-out: MIC 100% inhibition, isolate AF293

COc1cc(C)c2c(Oc3cccc(C(F)(F)F)c3)c(OC)cc(NC(C)CCCN)c2n1.O=C(O)CCC(=O)O (stereo not shown) [Tafenoquine Succinate]
MIC50 (Candida parapsilosis; ATCC22019, read-out: MIC 50% inhibition, isolate ATCC 22019): 4 µg/mL | MIC (Candida parapsilosis; ATCC22019, read-out: MIC 100% inhibition, isolate ATCC 22019): 4 µg/mL | MIC50 (Candida parapsilosis; read-out: MIC 50% inhibition, isolate CP1): 4 µg/mL | MIC (Candida parapsilosis; read-out: MIC 100% inhibition, isolate CP1): 4 µg/mL | MIC (Candida parapsilosis; read-out: MIC 100% inhibition, isolate CP2): 4 µg/mL | MIC (Candida parapsilosis; read-out: MIC 100% inhibition, isolate CP3): 8 µg/mL | MIC 50% inhibition (Candida parapsilosis; isolate CP2): 4 µg/mL | MIC 50% inhibition (Candida parapsilosis; isolate CP3): 4 µg/mL | MIC50 (Candida auris; Candidozyma auris, read-out: MIC 50% inhibition, isolate DI17-46): 4 µg/mL | MIC50 (Candida auris; Candidozyma auris, read-out: MIC 50% inhibition, isolate DI17-47): 4 µg/mL | MIC50 (Candida auris; Candidozyma auris, read-out: MIC 50% inhibition, isolate DI17-48): 2 µg/mL | MIC (Candida auris; Candidozyma auris, read-out: MIC 100% inhibition, isolate DI17-47): 4 µg/mL | MIC 100% inhibition (Candida auris; isolate DI17-46): 4 µg/mL | MIC 100% inhibition (Candida auris; isolate DI17-48): 4 µg/mL | MIC50 (Cryptococcus neoformans; Cryptococcus neoformans, read-out: MIC 50% inhibition, isolate CN3): 4 µg/mL | MIC50 (Cryptococcus neoformans; Cryptococcus neoformans, read-out: MIC 50% inhibition, isolate H99): 4 µg/mL | MIC50 (Cryptococcus neoformans; Cryptococcus neoformans, read-out: MIC 50% inhibition, isolate USC1597): 4 µg/mL | MIC (Cryptococcus neoformans; Cryptococcus neoformans, read-out: MIC 100% inhibition, isolate USC1597): 4 µg/mL | MIC 100% inhibition (Cryptococcus neoformans; isolate CN3): 4 µg/mL | MIC 100% inhibition (Cryptococcus neoformans; isolate H99): 4 µg/mL | MIC50 (Aspergillus fumigatus; read-out: MIC 50% inhibition, isolate AF293): 8 µg/mL | MIC50 (Aspergillus fumigatus; read-out: MIC 50% inhibition, isolate D115-106): 4 µg/mL | MIC50 (Aspergillus fumigatus; read-out: MIC 50% inhibition, isolate D115-116): 4 µg/mL | MIC (Aspergillus fumigatus; [5]): 16 µg/mL | MIC (Aspergillus fumigatus; read-out: MIC 100% inhibition, isolate D115-106): 8 µg/mL | MIC (Aspergillus fumigatus; read-out: MIC 100% inhibition, isolate D115-116): 4 µg/mL

COc1cc(C)c2c(Oc3cccc(C(F)(F)F)c3)c(OC)cc(NC(C)CCCN)c2n1 (stereo not shown) [Tafenoquine, N(4)-[2,6-Dimethoxy-4-methyl-5-[3-(trifluoromethyl)phenoxy]quinolin-8-yl]pentane-1,4-diamine]
MIC (Aspergillus fumigatus; [5]): 16 µg/mL (≈ 34.5 µM) | EC50 (SARS-CoV-2): 2.6 µM | EC50 (HCMV strain AD169): > 6 µM | antiviral activity [1]: too cytotoxic to the cell lines used to determine whether antiviral activity was present | concentration of tafenoquine in lung ([2]; 0.5 hours post-administration): 1.21 microgram equivalents tafenoquine per gram of tissue | concentration of tafenoquine in lung ([2]; 1 hour): 6.43 microgram equivalents tafenoquine per gram of tissue | concentration of tafenoquine in lung ([2]; 6 hours): 133 microgram equivalents tafenoquine per gram of tissue | concentration of tafenoquine in lung ([2]; 12 hours): 154 microgram equivalents tafenoquine per gram of tissue | concentration of tafenoquine in lung ([2]; 24 hours): 136 microgram equivalents tafenoquine per gram of tissue | concentration of tafenoquine in lung ([2]; 48 hours): 119 microgram equivalents tafenoquine per gram of tissue | concentration of tafenoquine in lung ([2]; 72 hours): 83.7 microgram equivalents tafenoquine per gram of tissue | concentration of tafenoquine in lung ([2]; 96 hours): 59.4 microgram equivalents tafenoquine per gram of tissue | concentration of tafenoquine in lung ([2]; 120 hours): 44.4 microgram equivalents tafenoquine per gram of tissue | lung:blood concentration ratio ([2]; rat): 250 | ratio of lung:plasma concentrations ([2]; rat): ~650 | tissue accumulation ([2]; rat, FIG. 3): accumulate in lung more than any other tissue in the body | mice moribund prior to the study endpoint ([3]; 10 mg/kg group): 2 of 21 | mice moribund prior to the study endpoint ([3]; 20 mg/kg group): 4 of 21 | tolerability ([3]; 2.5 and 5.0 mg/kg oral, daily): well-tolerated | mouse weights on days 7/8 versus vehicle control ([3]; higher dose groups (10 and 20 mg/kg)): these differences were not significant | dose clearing Babesia parasitemia (Babesia): 20 mg/kg | Cmax of a single dose of 200 mg ([4]; 200 mg): [147 ng/ml *4.4]. | Cmax following a single dose [4]: approximately 90 nanogram/ml | dose proportionality of pharmacokinetics [4]: proportional with the dose administered in the therapeutic range | steady state Cmax [4]: 300 nanogram/ml | steady state concentrations in 95% of individuals [4]: above 80 nanogram/ml
